This passage reports IC50 results from article PMC10661964 (Current Drug Metabolism, 2023).

Assay type in all cases: in vitro ADME
Assay [1] addresses T1, MATE1 (Homo sapiens, UniProt Q96FL8).
T1 construct: expressed in transfected cells; host or cells: HEK293, stably transfected
T1 sequence (Q96FL8 1-570): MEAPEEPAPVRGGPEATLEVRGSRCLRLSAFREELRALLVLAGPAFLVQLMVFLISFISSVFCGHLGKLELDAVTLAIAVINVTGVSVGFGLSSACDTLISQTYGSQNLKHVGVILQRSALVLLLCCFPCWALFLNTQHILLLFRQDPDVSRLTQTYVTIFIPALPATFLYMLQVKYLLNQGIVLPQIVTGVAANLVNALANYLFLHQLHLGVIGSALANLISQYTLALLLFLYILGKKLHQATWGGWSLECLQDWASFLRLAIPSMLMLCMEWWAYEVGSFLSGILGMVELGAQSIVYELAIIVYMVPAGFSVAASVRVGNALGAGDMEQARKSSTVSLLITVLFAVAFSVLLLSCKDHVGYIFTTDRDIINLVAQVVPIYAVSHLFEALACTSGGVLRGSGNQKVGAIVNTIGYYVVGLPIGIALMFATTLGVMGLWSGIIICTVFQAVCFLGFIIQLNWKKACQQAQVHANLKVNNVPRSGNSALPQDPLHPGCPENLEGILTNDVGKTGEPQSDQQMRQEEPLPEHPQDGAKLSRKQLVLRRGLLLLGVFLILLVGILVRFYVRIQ
Description: MATE1 transport assay in overexpressing HEK293 cells. Particulars: probe substrate metformin 20 µM. How it is done:
(§1) The inhibition of cytochrome P450 (CYP) isoforms and a range of cellular transporters (except multidrug and toxin extrusion [MATE] proteins), as well as the induction of CYP isoforms were investigated using previously described methods.
Supplementary Material Current Drug Metabolism, 2023, Vol. 24, No. 8 iii […]
-, not determined; BCRP, breast cancer resistance protein; P-gp, P-glycoprotein; MATE, multidrug and toxin extrusion. aThe highest test concentration of 20 µM was not valid in this assay for technical reasons.
OAT, organic anion transporter; OATP, organic anion transporting polypeptide; OCT, organic cation transporters.
After thawing from frozen storage, aliquots of approximately 3 x 10^6 cells of human embryonic kidney (HEK293) cell line stable overex-pressing MATE1 or MATE2K were transferred to cell culture dishes containing 10 mL of DMEM-medium (supplemented with 10% FBS, 1% penicillin [10.000 U/mL]/streptomycin [10 mg/mL] and hygromycin B [150 µg/mL]) at 37°C. Transporter-transfected and vector-transfected HEK cells were grown on cell culture dishes at 37°C in a humidified 5% CO 2 atmosphere. All cell lines were confirmed free from mycoplasma by routine testing with conventional PCR. Cell cultures were split when they had grown to confluency. For passaging, cells were washed with PBS, exposed to trypsin-EDTA for 5 min at room temperature, collected by centrifugation, resuspended in culture medium and […]
MATE1 and MATE2K Transport Assays
Transporter-transfected and vector-transfected cells were prepared for use in uptake assays by harvesting and plating into 24-well-plates pre-coated with poly-D-lysine hydrobromide at a density of 2 x 10^5 cells/well and then cultured for 3 days in DMEM growth medium (high glucose, 10% FBS, 1% penicillin/streptomycin). For uptake assays, the growth medium was aspirated and each plate well was rinsed twice with HBSS supplemented with 20 mM HEPES, pH 7.4. The intracellular environment was acidified by preincubation in 30 mM NH4Cl in buffer pH 7.4 at 37°C for 30 min. […]

For assay [2], the target named is T2, OAT3 (Homo sapiens, UniProt Q8TCC7).
T2 sequence (Q8TCC7 1-542): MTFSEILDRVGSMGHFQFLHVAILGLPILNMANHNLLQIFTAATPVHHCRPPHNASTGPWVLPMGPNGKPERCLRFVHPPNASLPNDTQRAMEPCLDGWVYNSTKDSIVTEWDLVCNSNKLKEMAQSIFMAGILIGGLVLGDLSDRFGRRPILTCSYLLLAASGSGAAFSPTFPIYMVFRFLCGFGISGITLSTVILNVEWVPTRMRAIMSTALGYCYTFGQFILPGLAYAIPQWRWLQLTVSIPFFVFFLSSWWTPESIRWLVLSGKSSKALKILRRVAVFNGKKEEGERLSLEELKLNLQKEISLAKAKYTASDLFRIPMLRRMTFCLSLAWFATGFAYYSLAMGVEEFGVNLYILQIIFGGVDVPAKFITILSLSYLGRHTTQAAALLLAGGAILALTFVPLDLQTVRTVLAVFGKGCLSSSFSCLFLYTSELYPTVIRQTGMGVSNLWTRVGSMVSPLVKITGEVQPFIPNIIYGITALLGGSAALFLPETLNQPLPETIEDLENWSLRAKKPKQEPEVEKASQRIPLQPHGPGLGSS
Description: Uptake transporter inhibition. Particulars: probe substrate estrone-3-sulphate.
From the text: as §1

Assay [3] concerns the target T3, OAT1 (Homo sapiens, UniProt Q4U2R8).
T3 sequence (Q4U2R8 1-563): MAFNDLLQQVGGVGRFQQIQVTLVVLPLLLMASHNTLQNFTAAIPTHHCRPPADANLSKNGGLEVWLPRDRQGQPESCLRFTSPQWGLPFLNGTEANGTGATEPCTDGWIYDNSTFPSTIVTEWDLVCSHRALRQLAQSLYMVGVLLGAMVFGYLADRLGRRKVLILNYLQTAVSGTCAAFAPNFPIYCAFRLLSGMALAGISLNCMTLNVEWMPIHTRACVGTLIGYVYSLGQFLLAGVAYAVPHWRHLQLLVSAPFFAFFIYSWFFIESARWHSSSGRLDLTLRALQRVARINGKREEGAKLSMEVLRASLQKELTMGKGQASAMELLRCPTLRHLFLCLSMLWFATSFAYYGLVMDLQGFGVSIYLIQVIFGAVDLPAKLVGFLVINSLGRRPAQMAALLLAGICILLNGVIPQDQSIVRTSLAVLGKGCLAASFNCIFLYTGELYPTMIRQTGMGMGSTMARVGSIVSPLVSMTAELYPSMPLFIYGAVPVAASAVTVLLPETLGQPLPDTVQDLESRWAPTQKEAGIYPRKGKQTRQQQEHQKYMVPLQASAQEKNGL
Nature of the assay: Uptake transporter inhibition. Particulars: probe substrate p-aminohippuric acid.
From the text: as §1

By IC50 is commonly meant the concentration at which inhibition is half-maximal. Lower therefore signals greater potency. For the compound `CC1CS(=O)(=O)CCN1n1cc(SCC(N)C(=O)O)ccc1=O` (stereo not drawn) [M-4], the IC50 in assay [1], in assay [2] and in assay [3] was > 5 µM in each case.

Take `CC1CS(=O)(=O)CCN1N` (stereo not drawn) [M-6]: the half-maximal inhibitory concentration (IC50) in assay [1], in assay [2] and in assay [3] was > 30 µM each time.

Consider `CC1CS(=O)(=O)CCN1/N=C/c1ccc([N+](=O)[O-])o1` (stereo not drawn) [Nifurtimox, (E)-N-(3-methyl-1,1-dioxo-1,4-thiazinan-4-yl)-1-(5-nitrofuran-2-yl) methanimine, reference compound], for which the IC50 in assay [1], in assay [2] and in assay [3] was > 20 µM each time.
